Tests used:
[1] = system: amoxicillin-sensitive bacterial strain of Escherichia coli (ATCC 8739); assay: Enzymatic test in liquid medium (growth inhibition with or without β-lactamase and cineole); type: cell-based; settings: for % inhibition of growth: AMX 6 μg/ml, cineole 0.002 μl/ml, β-lactamase 0.03 U/ml where present, 22 hours at 30° C.
Procedure: This study is based on an enzymatic test first placing AMX combined with cineole in contact with ß-lactamases. The antibacterial activity of this antibiotic was then checked on an AMX-sensitive strain of Escherichia coli.
An amoxicillin-sensitive bacterial strain of Escherichia coli (ATCC 8739) was supplied by the national hygiene institute (INH-Rabat).
For each test performed, precultures of this E. coli strain of 24 h at 37° C. were prepared from this bacterial strain (frozen beforehand at −20° C.). From these precultures, bacterial inocula of 3.3×10^6 CFU/ml were prepared, adjusting the optical density to 540 nm.
The ß-lactamase powder was supplied by Sigma Aldrich (France). It was dissolved according to the supplier's instructions, at 10 mg/ml in 0.1 M of Tris HCl at pH 7, containing 0.1% of gelatin. The ß-lactamase (0.03 U/ml) thus prepared was stored between 2 and 8° C.
The MIC of AMX at 100% with respect to the sensitive strain of Escherichia coli, determined via the microdilution method described previously, is of the order of 6 μg/ml.
Starting with a 24 h preculture of the sensitive strain of E. coli, bacterial inocula at 3.3×10^6 CFU/ml were prepared, adjusting the optical density to 540 nm.
Five control tubes and one test tube were prepared as described in table 6 (cf. below).
Tube no 1 corresponds to the sterility control of the medium. Tube no 2 corresponds to the positive control of viability of the bacterial strain. Tube no 3 corresponds to the control of sensitivity of the strain to AMX. Tube no 4 corresponds to the control of non-inhibition of bacterial growth with an infra-inhibitory concentration of cineole. Tube no 5 corresponds to the control of degradation of AMX in the presence of ß-lactamase. Tube no 6 corresponds to the test of the effect of cineole on amoxicillin inhibition by the β-lactamases.
The OD was measured at time t=0, and after 22 hours of incubation at 30° C. The percentage of inhibition was then calculated according to the formula described previously:
With ODT0=OD of the test tube at time t=0, ODT22=OD of the test tube after 22 h of incubation, ODC0=OD of the positive control tube at time t=0, ODC22=OD of the positive control tube after 22 h of incubation.

[2] = system: three strains of BSBL Escherichia coli and three strains of BSBL Klebsiella pneumoniae; assay: Microplate microdilution, statements over all six strains tested; type: cell-based
Procedure: The six strains tested in this study are purified clinical isolates identified in the bacteriology laboratory of the Hassan II university teaching hospital center (CHU, Fes, Morocco). Three of the six bacterial strains tested are strains of BSBL Escherichia coli (P956, P933 and P7847) and the other three bacterial strains tested are strains of BSBL Klebsiella pneumoniae (H1878, H2001 and H1893).
For each test performed, precultures of the bacterial strains (frozen beforehand at −20° C.) for 24 h at 37° C. were prepared. From these precultures, bacterial inocula containing 2×10^7 CFU (colony-forming units)/ml were prepared, adjusting the optical density to 540 nm.
Amoxicillin (AMX) and cineole were supplied by Sigma Aldrich (France). A stock solution of AMX (400 μg/ml) was prepared after dissolving 40 mg of antibiotic in 100 ml of sterile distilled water. From this stock solution, serial dilutions were performed. The cineole concentrations used were prepared by emulsifying pure cineole in 0.2% (v/v) of agar-agar according to the method described by Remmal A et al. (J. Essent. Oil. Res [Book], 1993, 5: pages 1179-1184).
The partial inhibitory concentrations (PIC) are the concentrations of antibacterial agents which inhibit the growth of a given percentage (90%, 75%, 50%, 40% . . . ) of the bacterial population studied. The PICs of AMX and cineole with respect to the six bacterial strains used were determined via a microplate microdilution technique based on the monitoring of the bacterial growth by measuring the optical density (Casey J. T. et al., J. Microbiol. Meth [Book], 2004, 58: pages 327-334; Patton T et al., J. Microbiol. Meth [Book], 2006, 64: pages 84-95).
96-well U-shaped sterile microplates with a capacity of 200 μl were used. […]
For AMX and cineole, two rows were prepared containing 100 μl of MH liquid medium, 50 μl of the bacteria inoculum at 2×10^7 CFU/ml and 50 μl of decreasing concentrations of antimicrobial agents. […] The optical densities (OD) were determined at 540 nm using a microplate spectrophotometer (Versamax, Molecular Devices, USA). The OD was measured at time t=0 and after 22 hours of incubation at 30° C. The percentage of inhibition of the antimicrobial agents with respect to each of the six strains was calculated according to Casey J. T. et al. (J. Microbiol. Meth. [Book], 2004, 58: pages 327-334) according to the following formula: […]
After having determined the PICs of AMX and cineole alone, the antibacterial power of the combination of AMX and cineole was evaluated. […]
The fractional inhibitory concentration index (FIC-index) expressing the degree of synergism of the AMX-cineole combination was calculated according to the following formula (Odds F. C. et al., J. Antimicrob. Chemoth. [Book], 2003, 52: page 1). […]

Row | Compound | % inhibition of growth [1] | MIC ([1]; ATCC8739, sensitive strain of Escherichia coli, microdilution, read-out: MIC of AMX at 100%) | IC50 ([2]; span over all strains tested, read-out: 50% PIC of AMX) | MIC ([2]; three strains of E. coli and three strains of K. pneumoniae, read-out: minimum inhibitory concentrations (MIC, 100% inhibition) of AMX) | % inhibition of growth ([1]; listed as Cineole) | 40% PIC of cineole ([2]; span over all strains tested) | MICs of cineole ([2]; three strains of E. coli and three strains of K. pneumoniae)
1 | CC1(C)S[C@@H]2[C@H](NC(=O)[C@H](N)c3ccc(O)cc3)C(=O)N2[C@H]1C(=O)O [amoxicillin, Amoxicillin] | 100% ± 0.0 | ~6 mg/L | 1.1 to 1.7 mg/L | ~50 mg/L |  |  | 
2 | CC12CCC(CC1)C(C)(C)O2 [cineole, 1,8-cineole] | no growth inhibition |  |  |  | 0% ± 0.0 | 6.2-7.1 μl/ml | ~100 μl/ml
